Here are results for 21 molecules from patent US20240254118A1, “PRMT5 INHIBITORS AND USES THEREOF” (Gilead Sciences, Inc., priority 2022, published 2024).

The subject of assay [1] is SDMA signal (PRMT5 inhibition) in HCT116 MTAP-deleted cells. Briefly: Symmetric di-methyl arginine image-based high content screen assay (SDMA assay), HCT116 MTAP-deleted. The assay is classed as cell-based. The settings on record: SDMA assay; for EC50: Homo sapiens, HCT-116, 72 h, 3 days of treatment, cell line not given, taken as HCT116 MTAP-deleted, read-out: EC50 (SDMA assay); for EC50 selectivity (SDMA assay): taken as HCT116 WT versus MTAP-deleted. The method in brief:
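HCT116 MTAP-deleted cells treated with compound until Day 3, then formalin-fixed, permeabilized and immunostained for SDMA, with DAPI nuclear counterstain. Imaged by high-content microscopy; SDMA read-out is mean Alexa 488 intensity per DAPI-defined cell, reflecting PRMT5 inhibition.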

Assay [2] deals with HCT116 MTAP-deleted cells. Briefly: Cell viability assay (CellTiter-Glo, 7 days), HCT116 MTAP-deleted. Conditions: Homo sapiens, HCT-116, 168 h. (ATP-based viability assays read luminescence as a measure of living cells.)

Structures are written as SMILES.

A word on the EC50: it is the concentration at which the effect is half-maximal. Broadly, the CC50 is the concentration that lowers cell viability or growth by half. A higher CC50 goes with lower toxicity to the cells. With `CN1CCN(N(Cc2ccc(C(F)(F)F)cn2)C(=O)c2ccc3nc(N)c4cnn(C)c4c3c2)CC1` [Example 58, 4-amino-1-methyl-N-(4-methylpiperazin-1-yl)-N-((5-(trifluoromethyl)pyridin-2-yl)methyl)-1H-pyrazolo[4,3-c]quinoline-8-carboxamide], in assay [1], the EC50 lay within 1 to 5 nM and the “EC50 selectivity (SDMA assay)” value is recorded as 126. In assay [2], the CC50 is 100 to 1000 nM.

Turning to `Cn1ncc2c(N)nc3ccc(C(=O)N(Cc4ccc(C(F)(F)F)cn4)N4CC(F)(F)C4)cc3c21` [Example 359, 4-amino-N-(3,3-difluoroazetidin-1-yl)-1-methyl-N-((5-(trifluoromethyl)pyridin-2-yl)methyl)-1H-pyrazolo[4,3-c]quinoline-8-carboxamide], in assay [1], the EC50 is less than 1 nM and the “EC50 selectivity (SDMA assay)” value was determined as 320. In assay [2], this molecule gave a cytotoxic concentration (CC50) of less than 100 nM.

As for `CN(C(=O)C1CC1)N(Cc1cc(F)c(F)cc1F)C(=O)c1ccc2nc(N)c3cnn(C)c3c2c1` [Example 272, 4-amino-N′-(cyclopropanecarbonyl)-N′,1-dimethyl-N-(2,4,5-trifluorobenzyl)-1H-pyrazolo[4,3-c]quinoline-8-carbohydrazide], in assay [1], the EC50 was less than 1 nM and the “EC50 selectivity (SDMA assay)” value is reported as 466. Besides, in assay [2], the CC50 is less than 100 nM.

As for `Cn1ncc2c(N)nc3cc(F)c(C(=O)N(Cc4ccc(C(F)(F)F)nn4)N4CCCC4=O)cc3c21` [Example 60, 4-amino-7-fluoro-1-methyl-N-(2-oxopyrrolidin-1-yl)-N-((6-(trifluoromethyl)pyridazin-3-yl)methyl)-1H-pyrazolo[4,3-c]quinoline-8-carboxamide], in assay [1], the EC50 was 1 to 5 nM and the “EC50 selectivity (SDMA assay)” value was found to be 58. In assay [2], this molecule registered a CC50 of less than 100 nM.

Consider `CN1CCN(N(Cc2ccc(C(F)(F)F)cn2)C(=O)c2ccc3nc(N)c4cnn(C)c4c3c2)C1=O` [Example 32, 4-amino-1-methyl-N-(3-methyl-2-oxo-imidazolidin-1-yl)-N-[[5-(trifluoromethyl)-2-pyridyl]methyl]pyrazolo[4,3-c]quinoline-8-carboxamide], for which, in assay [1], the EC50 is less than 1 nM and the “EC50 selectivity (SDMA assay)” value amounted to 74. The molecule also registered a CC50 in assay [2] of less than 100 nM.

As for `CN(C(=O)C12CC(C#N)(C1)C2)N(Cc1ccc(C(F)(F)F)cn1)C(=O)c1ccc2nc(N)c3cnn(C)c3c2c1` [Example 188, 4-amino-N′-(3-cyanobicyclo[1.1.1]pentane-1-carbonyl)-N′,1-dimethyl-N-[[5-(trifluoromethyl)-2-pyridyl]methyl]pyrazolo[4,3-c]quinoline-8-carbohydrazide], in assay [1], the EC50 was greater than 5 nM and the “EC50 selectivity (SDMA assay)” value worked out at 62. The CC50 in assay [2] was 100 to 1000 nM.

On to `CCN(C(C)=O)N(Cc1ccc(OC(F)F)cc1F)C(=O)c1cc2c(cc1F)nc(N)c1cnn(C)c12` [Example 154, N′-acetyl-4-amino-N-(4-(difluoromethoxy)-2-fluorobenzyl)-N′-ethyl-7-fluoro-1-methyl-1H-pyrazolo[4,3-c]quinoline-8-carbohydrazide], for which, in assay [1], the EC50 was less than 1 nM and the “EC50 selectivity (SDMA assay)” value is 45. Moreover, in assay [2], the CC50 is less than 100 nM.

For `CC(=O)N(C)N(Cc1ccc(-c2cnsc2)cc1F)C(=O)c1ccc2nc(N)c3cnn(C)c3c2c1` [Example 233, N′-acetyl-4-amino-N-(2-fluoro-4-(isothiazol-4-yl)benzyl)-N′,1-dimethyl-1H-pyrazolo[4,3-c]quinoline-8-carbohydrazide], in assay [1], the EC50 is less than 1 nM and the “EC50 selectivity (SDMA assay)” value is recorded as 89. Besides, the CC50 in assay [2] was less than 100 nM.

With `CC(=O)N(C)N(Cc1ccc(C(F)(F)F)cn1)C(=O)c1cc2c3c(c(N)nc2cc1F)COC3` [Example 70, N′-acetyl-4-amino-7-fluoro-N′-methyl-N-[[5-(trifluoromethyl)-2-pyridyl]methyl]-1,3-dihydrofuro[3,4-c]quinoline-8-carbohydrazide], in assay [1], the EC50 fell in the range of 1 to 5 nM and the “EC50 selectivity (SDMA assay)” value is on record as 11. In assay [2], this molecule registered a CC50 of less than 100 nM.

Take `CCC(=O)N(CC)N(Cc1ccc(C(F)(F)F)cn1)C(=O)c1cc2c(cc1F)nc(N)c1cnn(C)c12` [Example 280, 4-amino-N′-ethyl-7-fluoro-1-methyl-N′-propionyl-N-((5-(trifluoromethyl)pyridin-2-yl)methyl)-1H-pyrazolo[4,3-c]quinoline-8-carbohydrazide]: in assay [1], the EC50 fell in the range of 1 to 5 nM and the “EC50 selectivity (SDMA assay)” value is 31. For the same molecule, the CC50 in assay [2] was less than 100 nM.

Take `Cn1ncc2c(N)nc3ccc(C(=O)N(Cc4c(F)cc(C(F)(F)F)cc4F)N4CCCCC4=O)cc3c21` [Example 64, 4-amino-N-[[2,6-difluoro-4-(trifluoromethyl)phenyl]methyl]-1-methyl-N-(2-oxo-1-piperidyl)pyrazolo[4,3-c]quinoline-8-carboxamide]: in assay [1], the EC50 is less than 1 nM and the “EC50 selectivity (SDMA assay)” value is on record as 15. The same molecule had a CC50 in assay [2] of less than 100 nM.

Consider `CN(C(=O)OC(C)(C)C)N(Cc1ccc(C(F)(F)F)cn1)C(=O)c1ccc2nc(N)c3cnn(C)c3c2c1` [Example 137, tert-butyl N-[(4-amino-1-methyl-pyrazolo[4,3-c]quinoline-8-carbonyl)-[[5-(trifluoromethyl)-2-pyridyl]methyl]amino]-N-methyl-carbamate], for which, in assay [1], the EC50 fell in the range of 1 to 5 nM and the “EC50 selectivity (SDMA assay)” value is on record as 159. The CC50 in assay [2] was less than 100 nM.

`CCN(C(C)=O)N(Cc1ccc(C(F)(F)F)cn1)C(=O)c1cc2c(cc1F)nc(N)c1cnn(C)c12` [Example 205, N′-acetyl-4-amino-N′-ethyl-7-fluoro-1-methyl-N-[[5-(trifluoromethyl)-2-pyridyl]methyl]pyrazolo[4,3-c]quinoline-8-carbohydrazide]: in assay [1], the EC50 is less than 1 nM and the “EC50 selectivity (SDMA assay)” value is 44. In assay [2], the CC50 is less than 100 nM.

As to `CN1CCN(N(Cc2ccc(C(F)(F)F)cn2)C(=O)c2ccc3nc(N)c4cnn(C)c4c3c2)C(=O)C1` [Example 382, 4-amino-1-methyl-N-(4-methyl-2-oxo-piperazin-1-yl)-N-[[5-(trifluoromethyl)-2-pyridyl]methyl]pyrazolo[4,3-c]quinoline-8-carboxamide], in assay [1], the EC50 fell in the range of 1 to 5 nM and the “EC50 selectivity (SDMA assay)” value was 167. The molecule also gave a CC50 in assay [2] of less than 100 nM.

With `C[C@@H]1CN(N(Cc2ccc(C(F)(F)F)cn2)C(=O)c2cc3c(cc2F)nc(N)c2cnn(C)c23)C[C@H](C)O1` [Example 293, 4-amino-N-((2S,6R)-2,6-dimethylmorpholino)-7-fluoro-1-methyl-N-((5-(trifluoromethyl)pyridin-2-yl)methyl)-1H-pyrazolo[4,3-c]quinoline-8-carboxamide], in assay [1], the EC50 was less than 1 nM and the “EC50 selectivity (SDMA assay)” value is recorded as 9. In assay [2], this molecule registered a CC50 of less than 100 nM.

For the molecule `CN(C(=O)c1cccnn1)N(Cc1ccc(C(F)(F)F)cn1)C(=O)c1ccc2nc(N)c3cnn(C)c3c2c1` [Example 184, 14-amino-N′,1-dimethyl-N′-(pyridazine-3-carbonyl)-N-((5-(trifluoromethyl)pyridin-2-yl)methyl)-1H-pyrazolo[4,3-c]quinoline-8-carbohydrazide], in assay [1], the EC50 was greater than 5 nM and the “EC50 selectivity (SDMA assay)” value is recorded as 195. Further, the cytotoxic concentration (CC50) in assay [2] was greater than 1000 nM.

Consider `CC(=O)N(C)N(Cc1ccc(C#CC2(C(F)F)CC2)cc1F)C(=O)c1ccc2nc(N)c3cnn(C)c3c2c1` [Example 177, N′-acetyl-4-amino-N-(4-((1-(difluoromethyl)cyclopropyl)ethynyl)-2-fluorobenzyl)-N′,1-dimethyl-1H-pyrazolo[4,3-c]quinoline-8-carbohydrazide], for which, in assay [1], the 50% effective concentration (EC50) fell in the range of 1 to 5 nM and the “EC50 selectivity (SDMA assay)” value is 36. Besides, the CC50 in assay [2] is less than 100 nM.

As for `CN(C(=O)[C@@H]1C[C@@H]1F)N(Cc1ccc(C(F)(F)F)cn1)C(=O)c1ccc2nc(N)c3cnn(C)c3c2c1` [Example 276, 4-amino-N′-((1S,2S)-2-fluorocyclopropane-1-carbonyl)-N′,1-dimethyl-N-((5-(trifluoromethyl)pyridin-2-yl)methyl)-1H-pyrazolo[4,3-c]quinoline-8-carbohydrazide], in assay [1], the EC50 lay within 1 to 5 nM and the “EC50 selectivity (SDMA assay)” value was found to be 166. Also, the CC50 in assay [2] is less than 100 nM.

With `CCC(=O)N(C)N(Cc1cn2cc(F)ccc2n1)C(=O)c1ccc2nc(N)c3cnn(C)c3c2c1` [Example 91, 4-Amino-N-[(6-fluoroimidazo[1,2-a]pyridin-2-yl)methyl]-N′,1-dimethyl-N′-propanoyl-pyrazolo[4,3-c]quinoline-8-carbohydrazide], in assay [1], the EC50 is 1 to 5 nM and the “EC50 selectivity (SDMA assay)” value was 143. In addition, the CC50 in assay [2] was less than 100 nM.

`CN(C(=O)C1CC1)N(Cc1ccc(C#CC2CCCO2)cc1F)C(=O)c1ccc2nc(N)c3cnn(C)c3c2c1` (stereo not drawn) [Example 391, 4-amino-N′-(cyclopropanecarbonyl)-N-(2-fluoro-4-((tetrahydrofuran-2-yl)ethynyl)benzyl)-N′,1-dimethyl-1H-pyrazolo[4,3-c]quinoline-8-carbohydrazide]: in assay [1], the EC50 was 1 to 5 nM and the “EC50 selectivity (SDMA assay)” value came to 64. In assay [2], the CC50 is less than 100 nM.

`Cn1ncc2c(N)nc3ccc(C(=O)N(Cc4ccccn4)N4CCCC4=O)cc3c21` [Example 54, 4-amino-1-methyl-N-(2-oxopyrrolidin-1-yl)-N-(pyridin-2-ylmethyl)-1H-pyrazolo[4,3-c]quinoline-8-carboxamide]: in assay [1], the EC50 was greater than 5 nM and the “EC50 selectivity (SDMA assay)” value is 339. The same molecule showed a CC50 in assay [2] of 100 to 1000 nM.
